What all share (assay type): cell-based
Experiment [1] relates to Z α1‐antitrypsin in CHO‐K1 Tet‐On cells. Briefly: Pulse‐chase of Z α1‐antitrypsin in CHO‐K1 Tet‐On cells. The settings on record: 10 μM GSK716. On the procedure:
Figure 2 GSK716 inhibits polymerisation of Z α1‐antitrypsin in cell models of disease • A GSK716 was added to CHO‐TET‐ON‐Z‐A1AT cells (Ordóñez et al, 2013) with simultaneous induction of Z α1‐antitrypsin expression using doxycycline, and polymer load was quantified with the 2C1 monoclonal antibody that is specific to pathological polymers of α1‐antitrypsin (Miranda et al, 2010). […] Data were normalised to vehicle and a control compound from the GSK716 series at saturating concentration. […] It induced an approximately threefold increase in secreted levels of Z α1‐antitrypsin compared with vehicle control. This was apparent even after polymers had been allowed to form. Scale bar: 100 µm. Data presented as mean ± SD, n = 8 (secretion) and n = 6 (polymer inhibition). • E CHO tetracycline‐inducible cells expressing Z α1‐antitrypsin were induced with 0.5 μg/ml doxycycline for 48 h and treated with 10 μM GSK716. […] For every time point, NP‐40‐soluble and NP‐40‐insoluble fractions were separated and immunoprecipitated with the 2C1 mAb and resolved by 4–12% w/v SDS–PAGE and α1‐antitrypsin detected by immunoblotting. […] Cell viability was measured by Cell Counting Kit‐8. […] Samples were resolved by 4–12% w/v acrylamide SDS–PAGE and detected by autoradiography. • H The graphs show the effect of GSK716 on intracellular and extracellular Z α1‐antitrypsin (mean ± SEM, n = 2). […]

For another experiment, the target named is OPRK1 (Homo sapiens, UniProt P41145). Kind of experiment: Off‐target panel: OPRK1. On the procedure: (§1) GSK716 selectivity and PK properties were profiled in order to investigate the suitability of GSK716 for progression into in vivo studies and the potential for taking it forward as a clinical candidate for testing in humans. Since GSK716 results in loss of inhibitory activity of α1‐antitrypsin, the effect of the compound was assessed on other closely related serpins. […] Furthermore, there were no off‐target effects in a panel of assays considered predictive of known safety liabilities that precluded further development of GSK716 (Table EV1).

In a further experiment the target is Dopamine D1 (Homo sapiens, UniProt P21728). Kind of experiment: Off‐target panel: Dopamine D1 (DRX). As for the experimental part:
as §1

What is called EC50 is the concentration giving half of the maximal effect. What is called IC50 is the point on the concentration scale where inhibition reaches its midpoint. Read a low IC50 as greater potency.

Some results are limits rather than exact numbers.

Chain of Dopamine D1 (P21728 whole entry): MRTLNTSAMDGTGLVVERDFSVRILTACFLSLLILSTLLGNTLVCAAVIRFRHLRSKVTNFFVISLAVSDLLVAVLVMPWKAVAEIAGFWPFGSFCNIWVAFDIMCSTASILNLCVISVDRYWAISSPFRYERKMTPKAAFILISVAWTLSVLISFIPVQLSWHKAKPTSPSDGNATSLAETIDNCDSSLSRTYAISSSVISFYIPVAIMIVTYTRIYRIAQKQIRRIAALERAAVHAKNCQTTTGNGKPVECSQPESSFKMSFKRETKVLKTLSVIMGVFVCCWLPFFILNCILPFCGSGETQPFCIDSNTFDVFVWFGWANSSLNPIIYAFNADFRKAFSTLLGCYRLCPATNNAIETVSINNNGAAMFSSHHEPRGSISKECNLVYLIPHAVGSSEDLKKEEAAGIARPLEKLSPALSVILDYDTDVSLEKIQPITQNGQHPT
Chain of OPRK1 (P41145 whole entry, species assumed): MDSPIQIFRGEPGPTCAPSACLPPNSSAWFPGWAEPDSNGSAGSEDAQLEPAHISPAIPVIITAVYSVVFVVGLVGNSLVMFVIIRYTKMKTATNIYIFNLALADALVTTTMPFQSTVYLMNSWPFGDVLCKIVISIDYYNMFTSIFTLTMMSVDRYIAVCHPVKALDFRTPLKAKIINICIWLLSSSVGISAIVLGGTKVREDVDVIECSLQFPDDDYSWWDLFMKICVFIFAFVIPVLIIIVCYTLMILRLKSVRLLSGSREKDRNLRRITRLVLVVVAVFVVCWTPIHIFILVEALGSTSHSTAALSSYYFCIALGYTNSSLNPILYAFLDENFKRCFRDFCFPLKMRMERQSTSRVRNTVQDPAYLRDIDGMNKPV

Consider `CCC[C@@H](NC(=O)c1cccc2c1CC(=O)N2)[C@@H](O)c1cccc(F)c1C` [GSK716], for which, in experiment [1], the “intracellular polymers, clearance and secretion in pulse‐chase” value is on record as “abolished intracellular polymers”. Also, the concentration for a half-maximal effect (EC50) at OPRK1 was over 100 µM. The IC50 at Dopamine D1 is over 100 µM.

The values are drawn from publication PMC7933930, “Development of a small molecule that corrects misfolding and increases secretion of Z α1‐antitrypsin” (EMBO Molecular Medicine, 2021).
